# Source: PubChem BioAssay (NCI)
#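 Exposure lasted 48 hours, with cells grown in 96-well plates and compounds tested at five concentrations. At the TGI there is no net growth.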
# Experiments:
# Experiment in all cases: NCI-60 cell line screen, 48 h
# [1] = test system: MOLT-4 leukemia
# [2] = test system: DU-145 prostate
# [3] = test system: SF-295 CNS
# [4] = test system: MCF7 breast
# [5] = test system: A498 renal
# [6] = test system: COLO 205 colon
# [7] = test system: RPMI-8226 leukemia
# [8] = test system: PC-3 prostate
# [9] = test system: TK-10 renal
# [10] = test system: NCI/ADR-RES ovarian
# [11] = test system: KM12 colon
# [12] = test system: OVCAR-5 ovarian
# [13] = test system: SR leukemia
# [14] = test system: CAKI-1 renal
# [15] = test system: OVCAR-4 ovarian
# [16] = test system: HL-60(TB) leukemia
# [17] = test system: SF-539 CNS
# [18] = test system: RXF 393 renal
# [19] = test system: LOX IMVI melanoma
# [20] = test system: MDA-MB-231 breast
# [21] = test system: EKVX NSCLC
# [22] = test system: UO-31 renal
# [23] = test system: T-47D breast
# [24] = test system: CCRF-CEM leukemia
# [25] = test system: HOP-62 NSCLC
# [26] = test system: UACC-62 melanoma
# [27] = test system: MALME-3M melanoma
# [28] = test system: U251 CNS
# [29] = test system: MDA-MB-435
# [30] = test system: SK-MEL-28 melanoma
# [31] = test system: UACC-257 melanoma
# [32] = test system: SNB-19 CNS
# [33] = test system: NCI-H226 lung
# [34] = test system: MDA-N
# [35] = test system: SW-620 colon
# [36] = test system: NCI-H460 lung
# [37] = test system: SK-MEL-5 melanoma
# [38] = test system: SN12C renal
# [39] = test system: HS 578T breast
# [40] = test system: HOP-92 NSCLC
# [41] = test system: HT29 colon
# [42] = test system: SF-268 CNS
# [43] = test system: K-562 leukemia
# [44] = test system: OVCAR-3 ovarian
# [45] = test system: ACHN renal
# [46] = test system: HCT-15 colon
# [47] = test system: 786-0 renal
# [48] = test system: A549 NSCLC
# [49] = test system: SK-OV-3 ovarian
# [50] = test system: NCI-H23 lung
# [51] = test system: HCC-2998 colon
# [52] = test system: M14 melanoma
# [53] = test system: SK-MEL-2 melanoma
# [54] = test system: HCT-116 colon
# [55] = test system: IGROV1 ovarian
# [56] = test system: OVCAR-8 ovarian
# [57] = test system: NCI-H522 lung
# [58] = test system: BT-549 breast
# [59] = test system: SNB-75 CNS
compound,measurement,setting,value
O=C1Nc2ccc(Br)cc2/C1=N/N1C(=O)C(=O)N(C2CCCCC2)C1=S,TGI,[1],16.5 µM
same,TGI,[2],23.1 µM
same,TGI,[3],15.4 µM
same,TGI,[4],15.6 µM
same,TGI,[5],13.9 µM
same,TGI,[6],10.4 µM
same,TGI,[7],19.9 µM
same,TGI,[8],25.9 µM
same,TGI,[9],35 µM
same,TGI,[10],13.5 µM
same,TGI,[11],14.6 µM
same,TGI,[12],28.9 µM
same,TGI,[13],10.6 µM
same,TGI,[14],12.3 µM
same,TGI,[15],22.6 µM
same,TGI,[16],7.23 µM
same,TGI,[17],18.3 µM
same,TGI,[18],21.8 µM
same,TGI,[19],15.7 µM
same,TGI,[20],25.5 µM
same,TGI,[21],23.1 µM
same,TGI,[22],4.79 µM
same,TGI,[23],9.95 µM
same,TGI,[24],16.6 µM
same,TGI,[25],14.3 µM
same,TGI,[26],12.2 µM
same,TGI,[27],22.3 µM
same,TGI,[28],15.9 µM
same,TGI,[29],8.16 µM
same,TGI,[30],19 µM
same,TGI,[31],34.7 µM
same,TGI,[32],69.1 µM
same,TGI,[33],23.5 µM
same,TGI,[34],7.56 µM
same,TGI,[35],14.8 µM
same,TGI,[36],15.7 µM
same,TGI,[37],16.7 µM
same,TGI,[38],16 µM
same,TGI,[39],23.2 µM
same,TGI,[40],53.7 µM
same,TGI,[41],7.91 µM
same,TGI,[42],30.3 µM
same,TGI,[43],12.6 µM
same,TGI,[44],10.5 µM
same,TGI,[45],16.7 µM
same,TGI,[46],10.4 µM
same,TGI,[47],18.4 µM
same,TGI,[48],19.2 µM
same,TGI,[49],21.9 µM
same,TGI,[50],20.3 µM
same,TGI,[51],13.5 µM
same,TGI,[52],14.6 µM
same,TGI,[53],4.34 µM
same,TGI,[54],10.8 µM
Fc1ccc(C(OCCN2CCC3CCC(C2)N3C/C=C/c2cccs2)c2ccc(F)cc2)cc1 (centres undefined),TGI,[1],3.14 µM
same,TGI,[2],26 µM
same,TGI,[3],22.4 µM
same,TGI,[4],21.5 µM
same,TGI,[5],21 µM
same,TGI,[6],12.2 µM
same,TGI,[7],1.78 µM
same,TGI,[8],18.7 µM
same,TGI,[9],24.3 µM
same,TGI,[10],19.7 µM
same,TGI,[11],19.7 µM
same,TGI,[12],25.9 µM
same,TGI,[14],23.1 µM
same,TGI,[15],22.5 µM
same,TGI,[55],21.6 µM
same,TGI,[17],22.5 µM
same,TGI,[18],16.3 µM
same,TGI,[19],18.9 µM
same,TGI,[56],15.8 µM
same,TGI,[20],21.3 µM
same,TGI,[21],16.5 µM
same,TGI,[22],24.3 µM
same,TGI,[23],15.5 µM
same,TGI,[24],26.7 µM
same,TGI,[25],30.2 µM
same,TGI,[26],23.7 µM
same,TGI,[27],18.9 µM
same,TGI,[28],18.8 µM
same,TGI,[57],17.7 µM
same,TGI,[29],20.5 µM
same,TGI,[30],19.1 µM
same,TGI,[31],15.1 µM
same,TGI,[58],25.9 µM
same,TGI,[32],27.9 µM
same,TGI,[33],22.1 µM
same,TGI,[34],22 µM
same,TGI,[35],19.1 µM
same,TGI,[36],15.4 µM
same,TGI,[37],12.1 µM
same,TGI,[38],18 µM
same,TGI,[39],28.4 µM
same,TGI,[40],20.3 µM
same,TGI,[41],15.4 µM
same,TGI,[42],24.6 µM
same,TGI,[44],25.3 µM
same,TGI,[45],24.1 µM
same,TGI,[46],16.6 µM
same,TGI,[47],20.8 µM
same,TGI,[48],24.3 µM
same,TGI,[49],26.3 µM
same,TGI,[50],20.9 µM
same,TGI,[51],12.9 µM
same,TGI,[52],14.8 µM
same,TGI,[53],24.1 µM
same,TGI,[54],16.3 µM
same,TGI,[59],29 µM
CN(C)CCCn1c(Cn2nc3ccccc3n2)nc2cc(C(F)(F)F)ccc21,TGI,[1],45.6 µM
same,TGI,[2],> 100 µM
same,TGI,[3],> 100 µM
same,TGI,[4],64.7 µM
same,TGI,[5],41.7 µM
same,TGI,[6],28.6 µM
same,TGI,[8],> 100 µM
same,TGI,[9],80.6 µM
same,TGI,[10],> 100 µM
same,TGI,[11],54.1 µM
same,TGI,[12],> 100 µM
same,TGI,[14],> 100 µM
same,TGI,[15],> 100 µM
same,TGI,[16],16.5 µM
same,TGI,[55],> 100 µM
same,TGI,[18],> 100 µM
same,TGI,[19],34.6 µM
same,TGI,[56],> 100 µM
same,TGI,[20],> 100 µM
same,TGI,[21],> 100 µM
same,TGI,[22],73.2 µM
same,TGI,[23],35.1 µM
same,TGI,[24],39.5 µM
same,TGI,[25],> 100 µM
same,TGI,[26],40.8 µM
same,TGI,[27],24.4 µM
same,TGI,[28],> 100 µM
same,TGI,[57],31.2 µM
same,TGI,[29],33 µM
same,TGI,[30],34.6 µM
same,TGI,[31],33.5 µM
same,TGI,[58],> 100 µM
same,TGI,[32],> 100 µM
same,TGI,[33],> 100 µM
same,TGI,[34],35.6 µM
same,TGI,[35],> 100 µM
same,TGI,[36],89 µM
same,TGI,[37],30.2 µM
same,TGI,[38],> 100 µM
same,TGI,[39],> 100 µM
same,TGI,[40],89.9 µM
same,TGI,[41],46.2 µM
same,TGI,[42],> 100 µM
same,TGI,[43],36.6 µM
same,TGI,[44],> 100 µM
same,TGI,[45],> 100 µM
same,TGI,[46],> 100 µM
same,TGI,[47],35.3 µM
same,TGI,[48],> 100 µM
same,TGI,[49],60.9 µM
same,TGI,[50],> 100 µM
same,TGI,[51],21.2 µM
same,TGI,[52],29 µM
same,TGI,[53],43.5 µM
same,TGI,[54],> 100 µM
COC(=O)C(=O)C(C(=O)OC)C(=O)C(=O)Nc1c(Cl)cc([N+](=O)[O-])cc1Cl (centres undefined),TGI,[3],> 100 µM
same,TGI,[4],> 100 µM
same,TGI,[5],> 100 µM
same,TGI,[7],> 100 µM
same,TGI,[8],> 100 µM
same,TGI,[9],> 100 µM
same,TGI,[10],> 100 µM
same,TGI,[11],> 100 µM
same,TGI,[12],> 100 µM
same,TGI,[14],> 100 µM
same,TGI,[15],> 100 µM
same,TGI,[16],> 100 µM
same,TGI,[55],> 100 µM
same,TGI,[17],> 100 µM
same,TGI,[18],> 100 µM
same,TGI,[19],> 100 µM
same,TGI,[56],> 100 µM
same,TGI,[20],> 100 µM
same,TGI,[21],> 100 µM
same,TGI,[22],> 100 µM
same,TGI,[23],> 100 µM
same,TGI,[25],> 100 µM
same,TGI,[26],> 100 µM
same,TGI,[27],> 100 µM
same,TGI,[28],> 100 µM
same,TGI,[57],> 100 µM
same,TGI,[29],> 100 µM
same,TGI,[30],> 100 µM
same,TGI,[31],> 100 µM
same,TGI,[58],> 100 µM
same,TGI,[32],> 100 µM
same,TGI,[33],> 100 µM
same,TGI,[34],> 100 µM
same,TGI,[35],> 100 µM
same,TGI,[36],> 100 µM
same,TGI,[37],> 100 µM
same,TGI,[38],> 100 µM
same,TGI,[39],> 100 µM
same,TGI,[40],> 100 µM
same,TGI,[41],> 100 µM
same,TGI,[42],> 100 µM
same,TGI,[43],> 100 µM
same,TGI,[44],> 100 µM
same,TGI,[45],> 100 µM
same,TGI,[46],> 100 µM
same,TGI,[47],> 100 µM
same,TGI,[48],> 100 µM
same,TGI,[49],> 100 µM
same,TGI,[50],> 100 µM
same,TGI,[51],> 100 µM
same,TGI,[52],> 100 µM
same,TGI,[53],> 100 µM
same,TGI,[54],> 100 µM
same,TGI,[59],> 100 µM
